Assay results reported in PubChem BioAssay AID2060908 (Molecular Pharmacology Branch, DTP, NCI, 2025).
Each block holds one compound with its values, some of them ahead of it.

Test system: 186277-243-T-J2-PDC complex spheroids, viability
Experiment: Anticancer human tumor 186277-243-T-J2-PDC patient-derived colon adenocarcinoma cell line growth inhibition [RAS]
Settings: for IC50: curve of first compound; for viability, T/C: stronger effect = lower value
Method in brief: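 Multi-cell-type spheroids: tumor cells plus HUVEC endothelial cells and mesenchymal stem cells. RAS-pathway inhibitors were combined with targeted agents, each dosed in half-log steps down from clinical Cmax, or from 10 microM when Cmax was unknown.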

[1] = second compound 0.00316 µM, first compound 0.00316 µM
[2] = second compound 0.00316 µM, first compound 0.01 µM
[3] = second compound 0.00316 µM, first compound 0.0316 µM
[4] = second compound 0.00316 µM, first compound 0.1 µM
[5] = second compound 0.01 µM, first compound 0.00316 µM
[6] = second compound 0.01 µM, first compound 0.01 µM
[7] = second compound 0.01 µM, first compound 0.0316 µM
[8] = second compound 0.01 µM, first compound 0.1 µM
[9] = second compound 0.0316 µM, first compound 0.00316 µM
[10] = second compound 0.0316 µM, first compound 0.01 µM
[11] = second compound 0.0316 µM, first compound 0.0316 µM
[12] = second compound 0.0316 µM, first compound 0.1 µM
[13] = second compound 0.1 µM, first compound 0.00316 µM
[14] = second compound 0.1 µM, first compound 0.01 µM
[15] = second compound 0.1 µM, first compound 0.0316 µM
[16] = second compound 0.1 µM, first compound 0.1 µM
[17] = second compound 0.316 µM, first compound 0.00316 µM
[18] = second compound 0.316 µM, first compound 0.01 µM
[19] = second compound 0.316 µM, first compound 0.0316 µM
[20] = second compound 0.316 µM, first compound 0.1 µM
[21] = second compound 1 µM, first compound 0.00316 µM
[22] = second compound 1 µM, first compound 0.01 µM
[23] = second compound 1 µM, first compound 0.0316 µM
[24] = second compound 1 µM, first compound 0.1 µM
[25] = second compound 0.00316 µM, first compound 0.316 µM
[26] = second compound 0.00316 µM, first compound 1 µM
[27] = second compound 0.01 µM, first compound 0.316 µM
[28] = second compound 0.01 µM, first compound 1 µM
[29] = second compound 0.0316 µM, first compound 0.316 µM
[30] = second compound 0.0316 µM, first compound 1 µM
[31] = second compound 0.1 µM, first compound 0.316 µM
[32] = second compound 0.1 µM, first compound 1 µM
[33] = second compound 0.316 µM, first compound 0.316 µM
[34] = second compound 0.316 µM, first compound 1 µM
[35] = second compound 1 µM, first compound 0.316 µM
[36] = second compound 1 µM, first compound 1 µM
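Note: spheroids exposed to compounds for 7 days before viability read.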

IC50 (second compound 0.00316 µM): 85.1 nM
IC50 (second compound 0.01 µM): > 100 nM
IC50 (second compound 0.0316 µM): > 100 nM
IC50 (second compound 0.1 µM): 97.6 nM
IC50 (second compound 0.316 µM): 95.1 nM
IC50 (second compound 1 µM): 80.3 nM
Structure (SMILES): CC(C)n1nc(-c2ccc3oc(N)nc3c2)c2c(N)ncnc21 + C=CC(=O)N1CCN(c2nc(OCC3CCCN3C)nc3c(F)c(-c4nc(N)cc(C)c4C(F)(F)F)c(Cl)cc23)C(C)C1
viability, T/C (second compound 0.00316 µM, first compound 0.000316 µM): 109%
viability, T/C (second compound 0.00316 µM, first compound 0.001 µM): 92.1%
viability, T/C [1]: 91.1%
viability, T/C [2]: 80.4%
viability, T/C [3]: 90.1%
viability, T/C [4]: 43.5%
viability, T/C (second compound 0.01 µM, first compound 0.000316 µM): 97.6%
viability, T/C (second compound 0.01 µM, first compound 0.001 µM): 96.7%
viability, T/C [5]: 82.5%
viability, T/C [6]: 106%
viability, T/C [7]: 77.7%
viability, T/C [8]: 51.4%
viability, T/C (second compound 0.0316 µM, first compound 0.000316 µM): 95.1%
viability, T/C (second compound 0.0316 µM, first compound 0.001 µM): 104%
viability, T/C [9]: 80.3%
viability, T/C [10]: 123%
viability, T/C [11]: 89.8%
viability, T/C [12]: 56.8%
viability, T/C (second compound 0.1 µM, first compound 0.000316 µM): 94.5%
viability, T/C (second compound 0.1 µM, first compound 0.001 µM): 106%
viability, T/C [13]: 108%
viability, T/C [14]: 91%
viability, T/C [15]: 90.8%
viability, T/C [16]: 48.5%
viability, T/C (second compound 0.316 µM, first compound 0.000316 µM): 92.5%
viability, T/C (second compound 0.316 µM, first compound 0.001 µM): 106%
viability, T/C [17]: 94%
viability, T/C [18]: 93.9%
viability, T/C [19]: 97.4%
viability, T/C [20]: 48%
viability, T/C (second compound 1 µM, first compound 0.000316 µM): 109%
viability, T/C (second compound 1 µM, first compound 0.001 µM): 101%
viability, T/C [21]: 84.6%
viability, T/C [22]: 113%
viability, T/C [23]: 82.5%
viability, T/C [24]: 42.5%

IC50 (second compound 0.00316 µM): 509 nM
IC50 (second compound 0.01 µM): 460 nM
IC50 (second compound 0.0316 µM): 771 nM
IC50 (second compound 0.1 µM): 1020 nM
IC50 (second compound 0.316 µM): 453 nM
IC50 (second compound 1 µM): 344 nM
Structure (SMILES): CC(Nc1ccc2c(c1)OCCn1cc(N3C(=O)OCC3C(F)F)nc1-2)C(N)=O (stereo unspecified) + C=CC(=O)N1CCN(c2nc(OCC3CCCN3C)nc3c(F)c(-c4nc(N)cc(C)c4C(F)(F)F)c(Cl)cc23)C(C)C1
viability, T/C [3]: 109%
viability, T/C [4]: 108%
viability, T/C [25]: 58.9%
viability, T/C [26]: 40.8%
viability, T/C (second compound 0.00316 µM, first compound 3.16 µM): 34.7%
viability, T/C (second compound 0.00316 µM, first compound 10 µM): 35%
viability, T/C [7]: 102%
viability, T/C [8]: 109%
viability, T/C [27]: 57.3%
viability, T/C [28]: 42%
viability, T/C (second compound 0.01 µM, first compound 3.16 µM): 36.7%
viability, T/C (second compound 0.01 µM, first compound 10 µM): 25.3%
viability, T/C [11]: 90.2%
viability, T/C [12]: 105%
viability, T/C [29]: 70.3%
viability, T/C [30]: 47.1%
viability, T/C (second compound 0.0316 µM, first compound 3.16 µM): 37.4%
viability, T/C (second compound 0.0316 µM, first compound 10 µM): 33.5%
viability, T/C [15]: 82.8%
viability, T/C [16]: 99.9%
viability, T/C [31]: 72.8%
viability, T/C [32]: 50.5%
viability, T/C (second compound 0.1 µM, first compound 3.16 µM): 42.8%
viability, T/C (second compound 0.1 µM, first compound 10 µM): 31.2%
viability, T/C [19]: 105%
viability, T/C [20]: 103%
viability, T/C [33]: 55.3%
viability, T/C [34]: 42.5%
viability, T/C (second compound 0.316 µM, first compound 3.16 µM): 36.1%
viability, T/C (second compound 0.316 µM, first compound 10 µM): 33.7%
viability, T/C [23]: 93.3%
viability, T/C [24]: 98.5%
viability, T/C [35]: 51%
viability, T/C [36]: 44.1%
viability, T/C (second compound 1 µM, first compound 3.16 µM): 41.5%
viability, T/C (second compound 1 µM, first compound 10 µM): 28.3%

IC50 (second compound 0.00316 µM): 52.1 nM
IC50 (second compound 0.01 µM): 63.7 nM
IC50 (second compound 0.0316 µM): 66.9 nM
IC50 (second compound 0.1 µM): 74.5 nM
IC50 (second compound 0.316 µM): 73.4 nM
IC50 (second compound 1 µM): 86.1 nM
Structure (SMILES): O=C(c1ccc(F)c(F)c1Nc1ccc(I)cc1F)N1CC(O)([C@@H]2CCCCN2)C1 + C=CC(=O)N1CCN(c2nc(OCC3CCCN3C)nc3c(F)c(-c4nc(N)cc(C)c4C(F)(F)F)c(Cl)cc23)C(C)C1
viability, T/C [1]: 104%
viability, T/C [2]: 99.3%
viability, T/C [3]: 59.9%
viability, T/C [4]: 34%
viability, T/C [25]: 12%
viability, T/C [26]: 5.96%
viability, T/C [5]: 93.8%
viability, T/C [6]: 110%
viability, T/C [7]: 79.2%
viability, T/C [8]: 30.4%
viability, T/C [27]: 11.9%
viability, T/C [28]: 5.44%
viability, T/C [9]: 99.3%
viability, T/C [10]: 87.8%
viability, T/C [11]: 78.1%
viability, T/C [12]: 35%
viability, T/C [29]: 12.1%
viability, T/C [30]: 5.54%
viability, T/C [13]: 75.7%
viability, T/C [14]: 98%
viability, T/C [15]: 70.5%
viability, T/C [16]: 42.8%
viability, T/C [31]: 11.4%
viability, T/C [32]: 5.74%
viability, T/C [17]: 78.8%
viability, T/C [18]: 92.2%
viability, T/C [19]: 93.8%
viability, T/C [20]: 35.9%
viability, T/C [33]: 13.3%
viability, T/C [34]: 7.18%
viability, T/C [21]: 98.1%
viability, T/C [22]: 96.8%
viability, T/C [23]: 82.6%
viability, T/C [24]: 45.6%
viability, T/C [35]: 13.2%
viability, T/C [36]: 6.57%
